Measurements reported in paper PMC6278295, “Shape Effects of Peptide Amphiphile Micelles for Targeting Monocytes” (Molecules, 2018).

Tests used:
[1] = Circular dichroism secondary structure; assay type: physicochemical; settings: CD, 100 µM, 190-240 nm, five scans averaged, Provencher & Glockner Method
Procedure: Circular dichroism (CD) spectroscopy was carried out using a Jasco J-815 spectropolarimeter (Easton, MD, USA). PAM solutions (100 µM) were analyzed in 0.2 mm path-length cuvettes. Measurements were made at 0.5 nm intervals from 190 nm to 240 nm with 1 s intervals and 1 nm bandwidth. Data from five scans were averaged to create the CD spectra, and the secondary structures were quantified using the Provencher & Glockner Method.

[2] = system: murine monocytes; assay: Chemotaxis assay (transwell, migrated monocyte DNA); assay type: cell-based; settings: 4 h, 8 µm pore transwell, Pico Green, n = 4
Procedure: To determine the chemoattractant properties of PAMs, 50,000 monocytes in 20 µL were suspended on a 24-well transwell plate with 8 µm pores. After 4 h, the number of cells that migrated to the bottom well containing 1 µM, 10 µM, 100 µM, 1000 µM PAMs, peptides, or PBS was quantified by lysing the cells via sonication, and measuring DNA using Quant-it Pico Green (Invitrogen, Carlsbad, CA, USA).

Sequence	Secondary Structure, Alpha Helix [1]	Secondary Structure, Beta Sheet [1]	Secondary Structure, Random Coil [1]	Amount of migrated monocyte DNA at 1000 µM [2]
YNFTNRKISVQRLASYRRITSSK [MCP-1 Peptide, MCP-1 peptide (residues 13–35) modified with a cysteine at the N-terminus]	9.2%	36.2%	54.5%	78.98 ± 0.8 ng/mL
YNSLVFRIRNSTQRKYRASIST [Scrambled MCP-1 Peptide, scrambled version of the MCP-1 peptide designed to mimic its secondary structure]	8.6%	43.9%	47.5%	
